Measurements as given in patent publication US5480902A, “Thienylpyrrole fungicidal agents” (American Cyanamid Company, priority 1993, dated 1996).

Legend:
[1] = test system: Fusarium oxysporum f. sp. cucumerinum; experiment: In vitro fungicidal activity, growth inhibition of ground fungal mycelia (FUSOXC); format: cell-based; conditions: 25 ppm, 3-4 days at 21° C., averaged when more than one test, read-out: Growth inhibition rating, FUSOXC
Protocol: (§1) Test compounds are dissolved or suspended in acetone and dispersed into cell well plates containing a suspension of ground fungal mycelia in a nutrient broth. Assay plates are incubated for 3-4 days at 21° C. Growth inhibition is measured visually and is rated using the following scale:
(§2) Assay fungi include the plant pathogens, Pythium ultimum (Pythul); Rhizoctonia solani (Rhizso); Fusarium oxysporum f. sp. cucumerinum (Fusoxc); and Pseudocercosporella herpotrichoides (Psdche).
(§3) When more than one test is run, the data are averaged.

Rhizoctonia solani = experiment: In vitro fungicidal activity, growth inhibition of ground fungal mycelia (RHIZSO); format: cell-based; conditions: 3-4 days at 21° C., averaged when more than one test, read-out: Growth inhibition rating, RHIZSO
Protocol: as §1, §2, §3

Venturia inaegualis = experiment: In vivo fungicidal activity on host plants, Apple Scab (AS); conditions: 400 ppm; sprayed on host plants before inoculation
Plasmopara viticola = experiment: In vivo fungicidal activity on host plants, Grape Downy Mildew (GDM); conditions: 400 ppm; sprayed on host plants before inoculation
Botrytis cinerea = experiment: In vivo fungicidal activity on host plants, Pepper Botrytis (PB); conditions: 400 ppm; sprayed on host plants before inoculation
Pyricularia oryzae = format: in vivo; conditions: 400 ppm; sprayed on host plants before inoculation
Cercospora beticola = experiment: In vivo fungicidal activity on host plants, Sugar Beet Cercospora (SBC); conditions: 400 ppm; sprayed on host plants before inoculation; also: ranges in brackets are in %
[2] = test system: Puccinia recondita f. sp. tritici; experiment: In vivo fungicidal activity on host plants, Wheat Leaf Rust (WLR); conditions: 400 ppm; sprayed on host plants before inoculation
[3] = test system: Erysiphe graminis f. sp. tritici; experiment: In vivo fungicidal activity on host plants, Wheat Powdery Mildew (WPM); conditions: 400 ppm; sprayed on host plants before inoculation
[4] = test system: Pseudocercosporella herpotrichoides; experiment: In vitro fungicidal activity, growth inhibition of ground fungal mycelia (PSDCHE); format: cell-based; conditions: Oculimacula yallundae, 3-4 days at 21° C., averaged when more than one test, read-out: Growth inhibition rating, PSDCHE (converted)
Protocol: as §1, §2, §3

Pythium ultimum = experiment: In vitro fungicidal activity, growth inhibition of ground fungal mycelia (PYTHUL); format: cell-based; conditions: Globisporangium ultimum, 3-4 days at 21° C., averaged when more than one test, read-out: Growth inhibition rating, PYTHUL (converted)
Protocol: as §1, §2, §3

SMILES | inhibition at 25 ppm [1] | inhibition at 25 ppm (Rhizoctonia solani) | Disease control rating, AS (Venturia inaegualis) | Disease control rating, GDM (Plasmopara viticola) | Disease control rating, PB (Botrytis cinerea) | Disease control rating, RB (Pyricularia oryzae) | Disease control rating, SBC (Cercospora beticola) | Disease control rating, WLR [2] | Disease control rating, WPM [3] | inhibition at 25 ppm [4] | inhibition at 25 ppm (Pythium ultimum)
N#Cc1c(Cl)[nH]c(-c2ccc(Cl)s2)c1Br [Compound 7, 4-Bromo-2-chloro-5-(5-chloro-2-thienyl)pyrrole-3-carbonitrile] | 0% | 60 to 89% | 8 (96-99) | 0 (0) | 0 (0) | 0 (0) | 0 (0) | 7 (90-95) | 0 (0) | – | –
FC(F)(F)c1[nH]c(-c2ccc(Cl)cc2)cc1-c1csc(Br)c1 [Compound 9, 3-(5-Bromo-3-thienyl)-5-(p-chlorophenyl)-2-(trifluoromethyl)pyrrole] | 0% | 60 to 89% | 0 (0) | 6 (75-89) | 0 (0) | 0 (0) | 0 (0) | 0 (0) | 0 (0) | 0% | 0%
